# According to PubChem BioAssay AID2060513 (Molecular Pharmacology Branch, DTP, NCI, 2025):
# Tested on: 299254-011-R-J1-PDC complex spheroids viability
# Assay: Anticancer human tumor 299254-011-R-J1-PDC patient-derived melanoma cell line growth inhibition [GQUAD]
# Conditions: for IC50: curve of first compound; for viability, T/C: stronger effect = lower value
# In short: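 Multi-cell-type spheroids of tumor cells with HUVEC and mesenchymal stem cells, treated with drug combinations. Concentrations descend in half-log steps from near clinical Cmax, or from 10 microM where Cmax is unknown; viability read-out.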
# [1] = second compound 0.0316 µM, first compound 0.0316 µM
# [2] = second compound 0.0316 µM, first compound 0.1 µM
# [3] = second compound 0.0316 µM, first compound 0.316 µM
# [4] = second compound 0.0316 µM, first compound 1 µM
# [5] = second compound 0.0316 µM, first compound 3.16 µM
# [6] = second compound 0.0316 µM, first compound 10 µM
# [7] = second compound 0.1 µM, first compound 0.0316 µM
# [8] = second compound 0.1 µM, first compound 0.1 µM
# [9] = second compound 0.1 µM, first compound 0.316 µM
# [10] = second compound 0.1 µM, first compound 1 µM
# [11] = second compound 0.1 µM, first compound 3.16 µM
# [12] = second compound 0.1 µM, first compound 10 µM
# [13] = second compound 0.316 µM, first compound 0.0316 µM
# [14] = second compound 0.316 µM, first compound 0.1 µM
# [15] = second compound 0.316 µM, first compound 0.316 µM
# [16] = second compound 0.316 µM, first compound 1 µM
# [17] = second compound 0.316 µM, first compound 3.16 µM
# [18] = second compound 0.316 µM, first compound 10 µM
# [19] = second compound 1 µM, first compound 0.0316 µM
# [20] = second compound 1 µM, first compound 0.1 µM
# [21] = second compound 1 µM, first compound 0.316 µM
# [22] = second compound 1 µM, first compound 1 µM
# [23] = second compound 1 µM, first compound 3.16 µM
# [24] = second compound 1 µM, first compound 10 µM
# [25] = second compound 3.16 µM, first compound 0.0316 µM
# [26] = second compound 3.16 µM, first compound 0.1 µM
# [27] = second compound 3.16 µM, first compound 0.316 µM
# [28] = second compound 3.16 µM, first compound 1 µM
# [29] = second compound 3.16 µM, first compound 3.16 µM
# [30] = second compound 3.16 µM, first compound 10 µM
# [31] = second compound 10 µM, first compound 0.0316 µM
# [32] = second compound 10 µM, first compound 0.1 µM
# [33] = second compound 10 µM, first compound 0.316 µM
# [34] = second compound 10 µM, first compound 1 µM
# [35] = second compound 10 µM, first compound 3.16 µM
# [36] = second compound 10 µM, first compound 10 µM
# 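Also: spheroids exposed to the agents for seven days before readout.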
# 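For viability, T/C in this document: percent viability relative to DMSO vehicle control wells = 100%.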
structure (smiles),measurement,setting,value
COc1cccc2c1C(=O)c1c(O)c3c(c(O)c1C2=O)CC(O)(C(=O)CO)CC3OC1CC(N)C(O)C(C)O1 (stereo not given) + Cc1cnc(CNC(=O)c2c(=O)c3ccc(N4CCCN(C)CC4)nc3n3c2sc2ccccc23)cn1,IC50,second compound 0.0316 µM,4260 nM
same,IC50,second compound 0.1 µM,4920 nM
same,IC50,second compound 0.316 µM,3640 nM
same,IC50,second compound 1 µM,3990 nM
same,IC50,second compound 3.16 µM,2380 nM
same,IC50,second compound 10 µM,31.6 nM
same,"viability, T/C",[1],104%
same,"viability, T/C",[2],106%
same,"viability, T/C",[3],87%
same,"viability, T/C",[4],88.3%
same,"viability, T/C",[5],61.3%
same,"viability, T/C",[6],16.9%
same,"viability, T/C",[7],110%
same,"viability, T/C",[8],104%
same,"viability, T/C",[9],95.2%
same,"viability, T/C",[10],88.2%
same,"viability, T/C",[11],70.5%
same,"viability, T/C",[12],20.9%
same,"viability, T/C",[13],83.3%
same,"viability, T/C",[14],95%
same,"viability, T/C",[15],75.9%
same,"viability, T/C",[16],78.9%
same,"viability, T/C",[17],54.9%
same,"viability, T/C",[18],11.1%
same,"viability, T/C",[19],81.2%
same,"viability, T/C",[20],76.3%
same,"viability, T/C",[21],86.7%
same,"viability, T/C",[22],76.4%
same,"viability, T/C",[23],63%
same,"viability, T/C",[24],0.21%
same,"viability, T/C",[25],84.8%
same,"viability, T/C",[26],87.7%
same,"viability, T/C",[27],66.2%
same,"viability, T/C",[28],78.2%
same,"viability, T/C",[29],41.1%
same,"viability, T/C",[30],0.21%
same,"viability, T/C",[31],38.2%
same,"viability, T/C",[32],19.6%
same,"viability, T/C",[33],53.9%
same,"viability, T/C",[34],63.3%
same,"viability, T/C",[35],0.39%
same,"viability, T/C",[36],0.28%
CC1COCCN1c1cc(-c2ccnn2C)c2ccnc(-c3ccn[nH]3)c2n1 (stereo not given) + Cc1[nH]c2ccc(F)cc2c1-c1nc2c3cccnc3c3ncccc3c2[nH]1,IC50,second compound 0.0316 µM,180 nM
same,IC50,second compound 0.1 µM,177 nM
same,IC50,second compound 0.316 µM,245 nM
same,IC50,second compound 1 µM,201 nM
same,IC50,second compound 3.16 µM,187 nM
same,IC50,second compound 10 µM,88.9 nM
same,"viability, T/C",[1],111%
same,"viability, T/C",[2],65%
same,"viability, T/C",[3],36.1%
same,"viability, T/C",[4],19.6%
same,"viability, T/C",[5],21.5%
same,"viability, T/C",[6],13.1%
same,"viability, T/C",[7],80.3%
same,"viability, T/C",[8],70.3%
same,"viability, T/C",[9],29.1%
same,"viability, T/C",[10],21.6%
same,"viability, T/C",[11],17%
same,"viability, T/C",[12],12.9%
same,"viability, T/C",[13],90%
same,"viability, T/C",[14],88.4%
same,"viability, T/C",[15],38.8%
same,"viability, T/C",[16],22.4%
same,"viability, T/C",[17],14.2%
same,"viability, T/C",[18],15%
same,"viability, T/C",[19],93.1%
same,"viability, T/C",[20],70.4%
same,"viability, T/C",[21],36.5%
same,"viability, T/C",[22],21.9%
same,"viability, T/C",[23],16.4%
same,"viability, T/C",[24],17.4%
same,"viability, T/C",[25],84.5%
same,"viability, T/C",[26],71.8%
same,"viability, T/C",[27],31.8%
same,"viability, T/C",[28],14.5%
same,"viability, T/C",[29],12.2%
same,"viability, T/C",[30],15.2%
same,"viability, T/C",[31],74.1%
same,"viability, T/C",[32],47%
same,"viability, T/C",[33],26.7%
same,"viability, T/C",[34],17.4%
same,"viability, T/C",[35],12.1%
same,"viability, T/C",[36],15.4%
COc1ncnc(C2CC2)c1-c1ncc2cnn(Cc3ccc(-c4nc(C(F)(F)F)cn4C(C)C)cc3)c2n1 + Cc1[nH]c2ccc(F)cc2c1-c1nc2c3cccnc3c3ncccc3c2[nH]1,IC50,second compound 0.0316 µM,> 10000 nM
same,IC50,second compound 0.1 µM,> 10000 nM
same,IC50,second compound 0.316 µM,> 10000 nM
same,IC50,second compound 1 µM,> 10000 nM
same,IC50,second compound 3.16 µM,> 10000 nM
same,IC50,second compound 10 µM,> 10000 nM
same,"viability, T/C",[1],106%
same,"viability, T/C",[2],98.9%
same,"viability, T/C",[3],101%
same,"viability, T/C",[4],100%
same,"viability, T/C",[5],107%
same,"viability, T/C",[6],100%
same,"viability, T/C",[7],120%
same,"viability, T/C",[8],96.1%
same,"viability, T/C",[9],110%
same,"viability, T/C",[10],104%
same,"viability, T/C",[11],111%
same,"viability, T/C",[12],83.5%
same,"viability, T/C",[13],105%
same,"viability, T/C",[14],107%
same,"viability, T/C",[15],98.7%
same,"viability, T/C",[16],92%
same,"viability, T/C",[17],92.9%
same,"viability, T/C",[18],84.6%
same,"viability, T/C",[19],129%
same,"viability, T/C",[20],107%
same,"viability, T/C",[21],102%
same,"viability, T/C",[22],94.2%
same,"viability, T/C",[23],103%
same,"viability, T/C",[24],112%
same,"viability, T/C",[25],104%
same,"viability, T/C",[26],113%
same,"viability, T/C",[27],108%
same,"viability, T/C",[28],88.6%
same,"viability, T/C",[29],99.8%
same,"viability, T/C",[30],106%
same,"viability, T/C",[31],91%
same,"viability, T/C",[32],100%
same,"viability, T/C",[33],108%
same,"viability, T/C",[34],114%
same,"viability, T/C",[35],106%
same,"viability, T/C",[36],81.8%
CC(=O)O[C@H]1C(=O)[C@@]2(C)[C@H]([C@H](OC(=O)c3ccccc3)[C@]3(O)C[C@H](OC(=O)[C@H](O)[C@@H](NC(=O)c4ccccc4)c4ccccc4)C(C)=C1C3(C)C)[C@]1(OC(C)=O)CO[C@@H]1C[C@@H]2O + Cc1cnc(CNC(=O)c2c(=O)c3ccc(N4CCCN(C)CC4)nc3n3c2sc2ccccc23)cn1,IC50,second compound 0.0316 µM,412 nM
same,IC50,second compound 0.1 µM,243 nM
same,IC50,second compound 0.316 µM,273 nM
same,IC50,second compound 1 µM,169 nM
same,IC50,second compound 3.16 µM,205 nM
same,IC50,second compound 10 µM,< 31.6 nM
same,"viability, T/C",[1],90%
same,"viability, T/C",[2],77.5%
same,"viability, T/C",[3],58.8%
same,"viability, T/C",[4],23.7%
same,"viability, T/C",[5],26.8%
same,"viability, T/C",[6],23%
same,"viability, T/C",[7],114%
same,"viability, T/C",[8],89.2%
same,"viability, T/C",[9],38.1%
same,"viability, T/C",[10],29.3%
same,"viability, T/C",[11],29.1%
same,"viability, T/C",[12],23.3%
same,"viability, T/C",[13],94.4%
same,"viability, T/C",[14],75.1%
same,"viability, T/C",[15],44.9%
same,"viability, T/C",[16],32.1%
same,"viability, T/C",[17],24.1%
same,"viability, T/C",[18],22.7%
same,"viability, T/C",[19],67.6%
same,"viability, T/C",[20],62.8%
same,"viability, T/C",[21],34.6%
same,"viability, T/C",[22],30.8%
same,"viability, T/C",[23],24.9%
same,"viability, T/C",[24],27.1%
same,"viability, T/C",[25],57.7%
same,"viability, T/C",[26],58%
same,"viability, T/C",[27],43.6%
same,"viability, T/C",[28],39.8%
same,"viability, T/C",[29],25.6%
same,"viability, T/C",[30],29.2%
same,"viability, T/C",[31],0.42%
same,"viability, T/C",[32],0.39%
same,"viability, T/C",[33],0.41%
same,"viability, T/C",[34],0.35%
same,"viability, T/C",[35],0.4%
same,"viability, T/C",[36],0.34%
CC1COCCN1c1cc(C2(O)CC3CCC(C2)O3)c2cnn(-c3ccn[nH]3)c2n1 (stereo not given) + Cc1cnc(CNC(=O)c2c(=O)c3ccc(N4CCCN(C)CC4)nc3n3c2sc2ccccc23)cn1,IC50,second compound 0.0316 µM,89.3 nM
same,IC50,second compound 0.1 µM,104 nM
same,IC50,second compound 0.316 µM,< 31.6 nM
same,IC50,second compound 1 µM,< 31.6 nM
same,IC50,second compound 3.16 µM,< 31.6 nM
same,IC50,second compound 10 µM,< 31.6 nM
same,"viability, T/C",[1],94.4%
same,"viability, T/C",[2],41.6%
same,"viability, T/C",[3],28.7%
same,"viability, T/C",[4],11.4%
same,"viability, T/C",[5],13%
same,"viability, T/C",[6],3.95%
same,"viability, T/C",[7],58.6%
same,"viability, T/C",[8],51.5%
same,"viability, T/C",[9],18.6%
same,"viability, T/C",[10],14.1%
same,"viability, T/C",[11],9.97%
same,"viability, T/C",[12],4.33%
same,"viability, T/C",[13],31.4%
same,"viability, T/C",[14],32%
same,"viability, T/C",[15],14.3%
same,"viability, T/C",[16],15.9%
same,"viability, T/C",[17],11%
same,"viability, T/C",[18],4.06%
same,"viability, T/C",[19],22.3%
same,"viability, T/C",[20],21%
same,"viability, T/C",[21],17.1%
same,"viability, T/C",[22],12.8%
same,"viability, T/C",[23],14.8%
same,"viability, T/C",[24],6.33%
same,"viability, T/C",[25],18.8%
same,"viability, T/C",[26],22.3%
same,"viability, T/C",[27],17.1%
same,"viability, T/C",[28],10.6%
same,"viability, T/C",[29],13.1%
same,"viability, T/C",[30],7.02%
same,"viability, T/C",[31],0.16%
same,"viability, T/C",[32],0.22%
same,"viability, T/C",[33],0.23%
same,"viability, T/C",[34],0.17%
same,"viability, T/C",[35],0.29%
same,"viability, T/C",[36],0.23%
